The structures appear in SMILES notation. Where a name gives a salt, the structure may show the parent alone.

This experiment concerns the target T1, human HSL (Homo sapiens, UniProt Q05469).
T1 construct: generate a full length human HSL ORF with a 3′-His6 tag; His6 (C); made in house; host or cells: High 5 insect cells (baculovirus, pFast-BAC)
T1 sequence (Q05469 1-1076): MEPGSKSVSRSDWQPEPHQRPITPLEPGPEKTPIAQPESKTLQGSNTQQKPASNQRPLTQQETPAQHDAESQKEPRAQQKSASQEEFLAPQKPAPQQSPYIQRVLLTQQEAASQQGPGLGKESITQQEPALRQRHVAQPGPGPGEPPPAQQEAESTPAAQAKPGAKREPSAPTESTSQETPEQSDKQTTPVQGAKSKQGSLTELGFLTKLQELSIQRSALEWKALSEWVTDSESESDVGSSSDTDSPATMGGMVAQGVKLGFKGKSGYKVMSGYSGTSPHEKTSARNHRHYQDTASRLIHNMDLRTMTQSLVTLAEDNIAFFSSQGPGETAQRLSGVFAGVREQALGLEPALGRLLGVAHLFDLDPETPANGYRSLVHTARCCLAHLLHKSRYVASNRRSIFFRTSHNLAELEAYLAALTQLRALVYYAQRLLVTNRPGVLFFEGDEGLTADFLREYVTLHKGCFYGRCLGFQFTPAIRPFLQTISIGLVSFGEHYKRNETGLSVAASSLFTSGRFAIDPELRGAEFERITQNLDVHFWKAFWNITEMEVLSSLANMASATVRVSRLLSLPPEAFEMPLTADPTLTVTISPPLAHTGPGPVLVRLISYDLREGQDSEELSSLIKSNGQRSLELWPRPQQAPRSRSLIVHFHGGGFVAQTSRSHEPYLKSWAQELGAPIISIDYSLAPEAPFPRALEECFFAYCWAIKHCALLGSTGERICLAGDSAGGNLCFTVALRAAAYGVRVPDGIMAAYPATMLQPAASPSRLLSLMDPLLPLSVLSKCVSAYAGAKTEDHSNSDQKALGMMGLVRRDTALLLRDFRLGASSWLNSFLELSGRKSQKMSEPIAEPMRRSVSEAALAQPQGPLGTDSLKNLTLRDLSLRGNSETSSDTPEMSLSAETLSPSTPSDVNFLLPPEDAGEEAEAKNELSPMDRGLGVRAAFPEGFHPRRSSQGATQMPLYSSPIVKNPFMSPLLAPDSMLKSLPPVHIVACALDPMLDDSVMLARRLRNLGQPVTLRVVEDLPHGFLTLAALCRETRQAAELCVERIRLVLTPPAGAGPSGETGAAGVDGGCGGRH
In words: Human Hormone-Sensitive Lipase (HSL) enzyme inhibition assay (colorimetric, DMPT substrate). It is filed as biochemical. Conditions: read-out: HSL hum IC50. The procedure, abridged:
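Full-length human HSL carrying a C-terminal His6 tag was expressed in High 5 insect cells via baculovirus and purified on Ni-NTA. Compounds from 3-fold DMSO series were mixed with 1.5 mM DMPT substrate suspension in 100 mM MOPS pH 7.2 with 0.2 mg/ml fatty acid-free BSA, then enzyme (15 ug/ml) was added for 20 minutes at 37 °C. Released thiol was detected with DTNB plus SDS/Triton X-100 (15 minutes, room temperature) at 405 nm.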
In general, IC50 refers to the concentration at which inhibition is half-maximal. Regarding `CCc1ccc(NC(=O)C2(N)CCN(C(=O)OCc3ccccc3)CC2)cc1` [Example 132, 4-Amino-4-(4-ethyl-phenylcarbamoyl)-piperidine-1-carboxylic acid benzyl ester], the IC50 was 460 nM.
For `CC(C)c1ccc(NC(=O)C2(O)CCN(S(=O)(=O)c3ccccc3Cl)CC2)cc1` [Example 7, 1-(2-Chloro-benzenesulfonyl)-4-hydroxy-piperidine-4-carboxylic acid (4-isopropyl-phenyl)-amide], the half-inhibitory concentration (IC50) came to 90 nM.
The result for `CCCc1ccc(NC(=O)C2(N)CCN(S(=O)(=O)c3ccccc3Cl)CC2)cc1` [Example 98, 4-Amino-1-(2-chloro-benzenesulfonyl)-piperidine-4-carboxylic acid (4-propyl-phenyl)-amide] reads 70 nM.
The result for `CC(C)(C)c1ccc(NC(=O)C2(O)CCN(C(=O)c3ccc(F)cc3F)CC2)cc1` [Example 41, 1-(2,4-Difluoro-benzoyl)-4-hydroxy-piperidine-4-carboxylic acid (4-tert-butyl-phenyl)-amide] reads 490 nM.
As to `CC(C)c1ccc(NC(=O)C2(N)CCN(C(=O)Nc3ccc(F)cc3)CC2)cc1` [Example 106, 4-Amino-piperidine-1,4-dicarboxylic acid 1-[(4-fluoro-phenyl)-amide]-4-[(4-isopropyl-phenyl)-amide]; hydrochloride], the IC50 amounted to 210 nM.
For `O=C(Nc1ccc(OC(F)(F)F)cc1)C1(O)CCN(S(=O)(=O)c2ccccc2C(F)(F)F)CC1` [Example 64, 4-Hydroxy-1-(2-trifluoromethyl-benzenesulfonyl)-piperidine-4-carboxylic acid (4-trifluoromethoxy-phenyl)-amide], the IC50 came out at 150 nM.
For `CCc1ccc(NC(=O)C2(N)CCN(S(=O)(=O)c3c(Cl)cccc3Cl)CC2)cc1` [Example 150, 4-Amino-1-(2,6-dichloro-benzenesulfonyl)-piperidine-4-carboxylic acid (4-ethyl-phenyl)-amide], the IC50 is 240 nM.
The result for `CCc1ccc(NC(=O)C2(N)CCN(S(=O)(=O)c3ccccc3Cl)CC2)cc1` [Example 93, 4-Amino-1-(2-chloro-benzenesulfonyl)-piperidine-4-carboxylic acid (4-ethyl-phenyl)-amide] reads 40 nM; that for `CC(C)(C)c1ccc(NC(=O)C2(O)CCN(Cc3ccccc3C(F)(F)F)CC2)cc1` [Example 47, 4-Hydroxy-1-(2-trifluoromethyl-benzyl)-piperidine-4-carboxylic acid (4-tert-butyl-phenyl)-amide], 230 nM.
In the case of `CCc1ccc(NC(=O)C2(N)CCN(Cc3ccccc3)CC2)cc1` [Example 151, 4-Amino-1-benzyl-piperidine-4-carboxylic acid (4-ethyl-phenyl)-amide], the IC50 came to 540 nM.
For `CC(C)CC(=O)N1CCC(N)(C(=O)Nc2ccc(C(C)C)cc2)CC1` [Example 128, 4-Amino-1-(3-methyl-butyryl)-piperidine-4-carboxylic acid (4-isopropyl-phenyl)-amide] the value was 660 nM; for `O=C(Nc1ccc(OC(F)(F)F)cc1)C1(O)CCN(Cc2ccccc2F)CC1` [Example 58, 1-(2-Fluoro-benzyl)-4-hydroxy-piperidine-4-carboxylic acid (4-trifluoromethoxy-phenyl)-amide], 190 nM.
With `CC(C)c1ccc(NC(=O)C2(N)CCN(C(=O)c3ccccc3OC(F)(F)F)CC2)cc1` [Example 123, 4-Amino-1-(2-trifluoromethoxy-benzoyl)-piperidine-4-carboxylic acid (4-isopropyl-phenyl)-amide], the IC50 stood at 200 nM.
Take `Cc1ccccc1S(=O)(=O)N1CCC(N)(C(=O)Nc2ccc(C(C)C)cc2)CC1` [Example 119, 4-Amino-1-(toluene-2-sulfonyl)-piperidine-4-carboxylic acid (4-isopropyl-phenyl)-amide]: the IC50 came out at 60 nM.
As for `CC(C)c1ccc(NC(=O)C2(N)CCN(Cc3ccccc3Cl)CC2)cc1` [Example 110, 4-Amino-1-(2-chloro-benzyl)-piperidine-4-carboxylic acid (4-isopropyl-phenyl)-amide; hydrochloride], the IC50 stood at 80 nM.

(Values after patent US8399676B2, “Piperidine derivatives” (Hoffman-La Roche Inc., priority 2009, dated 2013).)
